Reference: patent US7569711B2, “Enone cancer therapeutics” (Cornell Univeristy, priority 2002, dated 2009)
Read-outs that look alike come from different tables or passages of the source. Values belong to the compound of their own block, whether it stands above or below them.

Columns and labels:
hGSTP1-1 = molecular target: T1, hGSTP1-1 (Homo sapiens, UniProt P09211); test: initial rates of reaction with hGSTP1-1 (substrate kinetics); format: biochemical; conditions: pH 6.5, [GSH]=1 mM, 25° C.; estimated
T1 construct: purchased Sigma Chemical Company; host or cells: human placenta
T1 sequence (P09211 2-210 limits assumed): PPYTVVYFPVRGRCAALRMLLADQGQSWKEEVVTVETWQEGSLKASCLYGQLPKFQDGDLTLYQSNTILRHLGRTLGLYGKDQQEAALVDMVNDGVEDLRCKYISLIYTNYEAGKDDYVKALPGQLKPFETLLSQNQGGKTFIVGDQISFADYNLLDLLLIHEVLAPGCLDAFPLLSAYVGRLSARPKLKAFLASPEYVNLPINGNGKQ
Experimental: Initial rates of reaction of 1a and 1b with hGSTP1-1 were determined from reciprocal plots of initial velocities (ΔOD235/min), versus [substrate] in buffered solution at pH 6.5, with [GSH]=1 mM (25° C.). Under those conditions, the enzyme-catalyzed GSH addition became rate determining (<0.01 units of transferase in the assay cuvettes).

[1] = tested on: murine and human tumors in culture; conditions: range of different murine and human tumors in culture; read-out: IC50 antitumor activity; cited from earlier work
human erythrocyte GlxI [2] = molecular target: T2, human erythrocyte GlxI (Homo sapiens, UniProt Q04760); conditions: competitive; previously reported; read-out: dissociation constant Ki; cited from earlier work
T2 construct: Kinetic studies with human erythrocyte GlxI; from tissue; host or cells: human erythrocytes
T2 sequence (Q04760 2-184 limits assumed): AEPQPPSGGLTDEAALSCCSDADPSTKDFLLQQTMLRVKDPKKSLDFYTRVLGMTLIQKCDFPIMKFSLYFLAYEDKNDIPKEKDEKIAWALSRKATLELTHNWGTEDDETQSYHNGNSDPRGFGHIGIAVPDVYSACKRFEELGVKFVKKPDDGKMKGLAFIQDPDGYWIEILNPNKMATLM

human erythrocyte GlxI [3] = molecular target: T2, human erythrocyte GlxI; test: kinetic studies with human erythrocyte GlxI (competitive inhibition); format: biochemical; conditions: sodium phosphate buffer, pH 7.0, 25° C., read-out: dissociation constant Ki
Experimental: In each kinetic run, the concentration of free GSH was maintained at 0.2 mM by varying the total concentration of GSH and methylglyoxal on the basis of the dissociation constant of the hemithioacetal (Kdiss=2.2 mM). Conditions: 50 mM phosphate buffer, pH 7.0, 25° C.
To investigate the mechanism of formation of 2b, the nonenzymatic reaction of 1b with GSH was monitored spectrophotometrically, and followed a simple first-order decay (FIG. 2, trace A). No intermediate species was detectable. However, in the presence of human placental glutathione transferase (GSTP 1-1) (Predominantly the pi or P1-1 isoform, purchased from Sigma Chemical Company. Salts and free GSH were removed by ultrafiltration. Units of transferase activity were determined using 1-chloro-2,4-dinitrobenzene as substrate (Mannervik, B.; Danielson, U. H. CRC Critical Reviews in Biochemistry 1988, 23, 283-337). The reaction rate profile conformed to a double exponential decay, composed of a rapid, enzyme-dependent, initial phase involving 1b followed by a slower enzyme-independent first-order phase (FIG. 2, traces B and C).

kcat/Km, fold lower than that of 1b (hGSTP1-1): ~8.3 fold
SMILES: C/C=C/C(=O)OCC1=C[C@@H](O)[C@@H](O)[C@@H](O)C1=O [Compound 1a, 2-crotonyloxymethyl-(4R, 5R, 6R)-4,5,6-trihydroxy-2-cyclohexenone]
IC50 [1]: 3 to 44 µM

SMILES: NC(CCC(=O)NC(CSCC1=CC(O)C(O)C(O)C1=O)C(=O)NCC(=O)O)C(=O)O (stereo not shown) [Compound 2a]
Ki (human erythrocyte GlxI [2]): 183 ± 6 µM

Ki (human erythrocyte GlxI [3]): 107 ± 0.1 µM
SMILES: N[C@@H](CCC(=O)N[C@@H](CSCC1=CCCCC1=O)C(=O)NCC(=O)O)C(=O)O [Compound 2b]
